Laboratory results published in the NIST ThermoML archive (doi:10.1016/j.jct.2016.08.034).
± gives the expanded uncertainty stated by the source.

Settings: Crystal; DTA

Normal melting temperature: 153.13 ± 1.1 °C
Structure (SMILES): C=CC(=O)N1CCC[C@@H](n2nc(-c3ccc(Oc4ccccc4)cc3)c3c(N)ncnc32)C1 [Ibrutinib]
